The record followed here is PubChem BioAssay AID1963435 (Molecular Pharmacology Branch, DTP, NCI, 2024).

Each structure is given as a SMILES string. Values joined by “and” are separate entries in the source; they are usually repeats but may differ in a detail not shown here. Equal values may be shown once. Where only a bound is given, the exact number is not on record here.

This test deals with PANC-1 complex spheroid growth, percent test/control. As to the kind of experiment: Anticancer human tumor PANC-1 cell line growth inhibition [Asc].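 As to all read-outs here: spheroids exposed to agents for 7 days.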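 As to viability, T/C: percent viability relative to DMSO vehicle wells taken as 100%.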 The settings on record: for viability, T/C: stronger effect = lower value. On the procedure:
Multicellular complex tumor spheroid response to apoptosis pathway targeting inhibitors Alrizomadlin, Pelcitoclax, and Dasminapant in combination with a variety of drugs and investigational agents in selected tumor cell lines
The MDM2 inhibitor alrizomadlin, the Bcl-2/Bcl-xL inhibitor pelcitoclax, and the IAPs inhibitor dasminapant were evaluated both individually and in combination with standard of care and investigational anticancer small molecules within a complex spheroid model of solid tumors. . Complex spheroids include a stromal component modeled by human endothelial cells (HUVEC) and fibroblasts modeled by human mesenchymal stem cells (MSCs). The concentration ranges selected for each drug and investigational agent were based upon clinically achievable concentrations if the clinical Cmax of the agent was known.
Compounds. The drugs and investigational agents: alrizomadlin (APG-115; NSC831270), pelcitoclax (APG-1252; NSC835773), dasminapant (APG-1387;NSC834197), TAK-243 (NSC785004), copanlisib (NSC809693), olaparib (NSC753686), talazoparib (NSC767125), cobimetinib (NSC 768068), eltanexor (KPT-8602, NSC 794443), abemaciclib (NSC 768073), sotorasib (NSC818433), adagrasib (NSC 831453), MRTX-1133 (NSC 836407), Iadademestat (ORY1001, NSC 806812), and RMC-4630 (NSC839698), were obtained from the NCI Developmental Therapeutics Program Chemical Repository. The FDA-approved anticancer drug set is available from the Developmental Therapeutics Program at https://dtp.cancer.gov/organization/dscb/obtaining/available plates.htm. […] The stock solutions were prepared in dimethyl sulfoxide (DMSO, Sigma-Aldrich, St. Louis, MO, cat. D2650) at 800-fold the tested concentration and stored at -70 degrees C prior to their use. All drugs and investigational agents were tested over a range starting from a high concentration at or near the clinical Cmax and decreasing in half-log increments. If the clinical Cmax for an agent had not been determined, the highest concentration tested was 10 microM.
The patient-derived cancer (PDC) cell lines include five colon adenocarcinomas: 186277-243-T-J2-PDC, 616215-338-R-J1-PDC, 439559-082-T-J2-PDC, 463943-066-T-J2-PDC, and 519858-162-T-J1-PDC; three pancreatic carcinomas: 323965-272-R-J2-PDC, 521955-158-R6-J3-PDC, and 521955-158-R2-J5-PDC; two uterine sarcomas: 327498-152-R-J2-PDC and 993429-296-R-J1-PDC; two rhabdomyosarcomas: 755483-174-R-J1-PDC and 772245-204-R-J1-PDC; two soft tissue sarcomas: 126254-015-R-J1-PDC and 494315-158-R-J1-PDC; two malignant fibrous histiocytomas: 317291-083-R-J1-PDC and 596521-263-R-J1-PDC; two breast carcinomas: 171881-019-R-J1-PDC and 885512-296-R-J2-PDC; and one ovarian carcinoma: 6556581-035-R-J-PDC were obtained from the NCI PDMR, (https://pdmr.cancer.gov). The established cell lines HSSY-2 synovial sarcoma (RRID:CVCL 8719), SYO-1 synovial sarcoma (RRID:CVCL_7146), MPNST malignant peripheral neural sheath tumor were obtained from the Sloan Kettering Institute. The following established cell lines were purchased from the American Type Culture Collection (ATCC, Manassas, VA), Sor the received from the NCI repository:, PANC-1 pancreatic carcinoma (CRL-1469, RRID:CVCL_0480), OVCAR-5 ovarian carcinoma (RRID:CVCL_1628), OVCAR-8 ovarian carcinoma (RRID:CVCL_1629), , MCF-7 breast carcinoma (CRL-12584, RRID:CVCL_0031), MDA-MB-231 breast carcinoma (CRL-12532, RRID:CVCL_0062), NCI-H1876 small cell lung carcinoma (CRL-5902, RRID:CVCL_1503), NCI-H510A small cell lung carcinoma (HTB-184, RRID:CVCL_1565), NCI-H1417 (CRL-5869, RRID:CVCL_1469), and NCI-H196 small cell lung carcinoma (CRL-5823, RRID:CVCL_1509). Dr. Peter Houghton (Greehey Children's Cancer Research Institute, University of Texas Health Science Center, San Antonio, TX) provided Rh-18 rhabdomyosarcoma (RRID:CVCL_1659). Pooled donor human umbilical vein endothelial cells (HUVEC, Lonza, cat. CC-2519) and human mesenchymal stem cells (hMSC, Lonza, cat. PT-2501) were purchased from Lonza (Walkersville, MD).
Cell Culture. […]

Where [1] appears, read: compound alone, run of 11/07/2022.

Take `C#Cc1c(F)ccc2cc(O)cc(-c3ncc4c(N5CC6CCC(C5)N6)nc(OCC56CCCN5CC(F)C6)nc4c3F)c12` (configuration not stated): the viability, T/C reads like this: (compound 0.0316 µM) 105% and 87.8% and 92.5%; (compound 0.1 µM) 80% and 75.7% and 88.9%; (compound 0.316 µM) 93.9% and 85.8% and 83.5%; (compound 1 µM) 79.9% and 80.1% and 84%; (compound 3.16 µM) 86.8% and 83.7% and 86.3%; (compound 10 µM) 85.4% and 84.5% and 92.1%. In addition, the IC50 (curve of compound) is over 10 µM.

For `C=C(F)C(=O)N1CCN(c2nc(OCC3CCCN3C)nc3c2CCN(c2cccc4cccc(Cl)c24)C3)CC1CC#N` (configuration not stated), the viability, T/C by setting is: (compound 0.0316 µM) 108% and 97% and 96.2%; (compound 0.1 µM) 105% and 86% and 95%; (compound 0.316 µM) 94.3% and 104% and 98%; (compound 1 µM) 101% and 96.9% and 96.6%; (compound 3.16 µM) 97.6% and 102% and 90.8%; (compound 10 µM) 29.9% and 33.2% and 31.5%. Further, the IC50 (curve of compound) was 7.1 µM and 7.4 µM and 6.98 µM.

In the case of `C=CC(=O)N1CCN(c2nc(=O)n(-c3c(C)ccnc3C(C)C)c3nc(-c4c(O)cccc4F)c(F)cc23)C(C)C1` (configuration not stated), the viability, T/C reads like this: (compound 0.0316 µM) 105% and 97.2% and 101%; (compound 0.1 µM) 96% and 89.2% and 90%; (compound 0.316 µM) 104% and 106% and 98%; (compound 1 µM) 101% and 89.2% and 96.2%; (compound 3.16 µM) 85.8% and 99.7% and 91.8%; (compound 10 µM) 93.4% and 87.1% and 88%. Also, the IC50 (curve of compound) is over 10 µM.

For `CCN1C(C(=O)NC23CCC(C(=O)O)(CC2)CC3)C(c2cccc(Cl)c2F)C2(C(=O)Nc3cc(Cl)ccc32)C12CCCCC2` (configuration not stated), the viability, T/C is 103% [middle of 9 runs] (compound 0.00949 µM); 102% [middle of 9 runs] (compound 0.03 µM); 103% [middle of 9 runs] (compound 0.0949 µM); 100% [middle of 9 runs] (compound 0.3 µM); 103% [middle of 9 runs] (compound 0.949 µM); 112% [middle of 9 runs] (compound 3 µM). The IC50 reads like this: under setting [1], over 3 µM; (curve of compound) over 3 µM.

For `CCN1CCN(Cc2ccc(Nc3ncc(F)c(-c4cc(F)c5nc(C)n(C(C)C)c5c4)n3)nc2)CC1`, the viability, T/C was 98.9% and 103% and 108% (compound 0.00316 µM); 107% and 98.8% and 97.8% (compound 0.01 µM); 111% (2×) and 121% (compound 0.0316 µM); 114% and 116% and 118% (compound 0.1 µM); 122% and 124% and 128% (compound 0.316 µM); 135% and 128% and 142% (compound 1 µM). The IC50 (curve of compound) is over 1 µM.

Consider `CNC(C)C(=O)NC1CN(S(=O)(=O)c2cccc(S(=O)(=O)N3CCC4CCC(C(=O)NC(c5ccccc5)c5ccccc5)N4C(=O)C(NC(=O)C(C)NC)C3)c2)CCC2CCC(C(=O)NC(c3ccccc3)c3ccccc3)N2C1=O` (configuration not stated), for which the viability, T/C is 107% [middle of 9 runs] (compound 0.00316 µM); 102% [middle of 9 runs] (compound 0.01 µM); 98.1% [middle of 9 runs] (compound 0.0316 µM); 96.1% [middle of 9 runs] (compound 0.1 µM); 93.5% [middle of 9 runs] (compound 0.316 µM); 89.2% [middle of 9 runs] (compound 1 µM). In addition, the IC50 was over 1 µM (compound alone, run of 11/15/2022) and over 1 µM (curve of compound).

As to `COc1c(OCCCN2CCOCC2)ccc2c3n(c(=NC(=O)c4cnc(N)nc4)nc12)CCN3`, the viability, T/C (compound 0.00316 µM) was 101% and 93.1% and 100%; the viability, T/C (compound 0.01 µM) is 89.9% and 93.9% and 92.4%; the viability, T/C (compound 0.0316 µM) is 92% and 108% and 94.5%; the viability, T/C (compound 0.1 µM) was 78.6% and 67.6% and 82.1%; the viability, T/C (compound 0.316 µM) is 52.2% and 63.2% and 49.7%; the viability, T/C (compound 1 µM) was 39.4% and 36.3% and 28.6%. Besides, the IC50 (curve of compound) was 0.511 µM and 0.302 µM and 0.385 µM.

Regarding `Cc1c(S(C)(=O)=O)c(-c2cc(F)cc(N3CCN(c4ccc(NS(=O)(=O)c5ccc(NC(CCN6CCC(C(=O)OCCCP(=O)(O)O)CC6)CSc6ccccc6)c(S(=O)(=O)C(F)(F)F)c5)cc4)CC3)c2)c(-c2ccc(Cl)cc2)n1C(C)C` (configuration not stated), the viability, T/C (compound 0.0316 µM) is 106% [middle of 7 runs]; the viability, T/C (compound 0.1 µM) was 108% [middle of 7 runs]; the viability, T/C (compound 3.16 µM) is 109% [middle of 7 runs]. Besides, the IC50 under setting [1] was over 10 µM.

On to `Cc1nc(N2CCC3(CC2)COC(C)C3N)c(CO)nc1Sc1ccnc(N)c1Cl` (configuration not stated), for which the viability, T/C by setting is: (compound 0.00949 µM) 101% and 93.1% and 109%; (compound 0.03 µM) 83.2% and 88.3% and 85.1%; (compound 0.0949 µM) 102% and 90.2% and 91%; (compound 0.3 µM) 82.2% and 84.3% and 94.8%; (compound 0.949 µM) 91.4% and 83.7% and 86.9%; (compound 3 µM) 87.5% and 86% and 99.3%. Moreover, the IC50 (curve of compound) was over 3 µM.

Turning to `Cn1ncnc1[C@H]1c2n[nH]c(=O)c3cc(F)cc(c23)N[C@@H]1c1ccc(F)cc1`, the viability, T/C is, setting by setting: (compound 0.000316 µM) 97.2% and 109% and 94.1%; (compound 0.001 µM) 104% and 101% and 106%; (compound 0.00316 µM) 99.2% and 110% and 107%; (compound 0.01 µM) 98.5% and 105% and 109%; (compound 0.0316 µM) 109% and 105% and 108%; (compound 0.1 µM) 109% and 105% and 115%. For the same compound, under “curve of compound”, the IC50 was over 0.1 µM.

On to `NC(=O)C(=Cn1cnc(-c2cc(C(F)(F)F)cc(C(F)(F)F)c2)n1)c1cncnc1`, for which the viability, T/C (compound 0.000949 µM) is 99.7% and 95.2% and 104%; the viability, T/C (compound 0.003 µM) is 88.1% and 92.4% and 96.4%; the viability, T/C (compound 0.00949 µM) was 92% and 89% and 111%; the viability, T/C (compound 0.03 µM) is 89.8% and 103% and 102%; the viability, T/C (compound 0.0949 µM) is 113% and 114% and 130%; the viability, T/C (compound 0.3 µM) was 92.5% and 100% and 118%. Besides, the IC50 (curve of compound) is over 0.3 µM.

For the compound `NC1CCC(NC2CC2c2ccccc2)CC1` (configuration not stated), the viability, T/C is 98.4% and 88.6% and 107% (compound 0.000316 µM); 100% and 93.4% and 91.5% (compound 0.001 µM); 100% and 110% and 93.7% (compound 0.00316 µM); 98.2% and 85.6% and 90.5% (compound 0.01 µM); 93.5% and 101% and 93.9% (compound 0.0316 µM); 107% and 91.3% and 97.6% (compound 0.1 µM). Also, the IC50 (curve of compound) is over 0.1 µM.

In the case of `O=C(c1cc(Cc2n[nH]c(=O)c3ccccc23)ccc1F)N1CCN(C(=O)C2CC2)CC1`, the viability, T/C was 93.1% and 94.8% and 102% (compound 0.0316 µM); 92.7% and 90.1% and 94.9% (compound 0.1 µM); 99.7% and 109% and 102% (compound 0.316 µM); 101% and 112% and 116% (compound 1 µM); 113% and 107% and 103% (compound 3.16 µM); 101% and 95.9% and 103% (compound 10 µM). Moreover, the IC50 (curve of compound) was over 10 µM.

As to `O=C(c1ccc(F)c(F)c1Nc1ccc(I)cc1F)N1CC(O)([C@@H]2CCCCN2)C1`, the viability, T/C is 94.2% and 92.8% and 95.9% (compound 0.00316 µM); 90.2% and 82.4% and 91.8% (compound 0.01 µM); 87.9% and 89.5% and 101% (compound 0.0316 µM); 85.8% and 91.7% and 97.6% (compound 0.1 µM); 87.8% and 89.1% and 96.5% (compound 0.316 µM); 92.6% and 92.3% and 102% (compound 1 µM). Also, the IC50 (curve of compound) is over 1 µM.
